pIC50: −log10 of the molar value.
Experiments:
[1] = molecular target: MAPK14 (UniProt Q16539); assay: MAPK14 Kinase Inhibition
[2] = molecular target: MAPK14 (UniProt Q16539); assay: MAPK14 Binding Inhibition

Sequence of MAPK14 (Q16539 whole entry, looked up): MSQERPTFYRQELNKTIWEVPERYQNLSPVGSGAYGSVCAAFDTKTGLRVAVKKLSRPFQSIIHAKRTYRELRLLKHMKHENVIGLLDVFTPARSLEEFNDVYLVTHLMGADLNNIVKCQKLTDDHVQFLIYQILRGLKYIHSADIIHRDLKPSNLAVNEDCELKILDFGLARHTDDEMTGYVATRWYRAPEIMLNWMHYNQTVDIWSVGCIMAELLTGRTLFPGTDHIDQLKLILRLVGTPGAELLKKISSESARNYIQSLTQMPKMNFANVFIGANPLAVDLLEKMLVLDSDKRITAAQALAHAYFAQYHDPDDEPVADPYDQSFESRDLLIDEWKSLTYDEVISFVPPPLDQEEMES

Row | Structure (SMILES) | pIC50 [1] | inhibition [2] [µM]
1 | COc1ccc(Nc2nccc(-c3c(-c4ccc(F)cc4)ncn3C3CCNCC3)n2)cc1 | > 4.30 | 
2 | CN1CCC(n2cnc(-c3ccc(F)cc3)c2-c2ccnc(Nc3ccccc3)n2)CC1 |  | < 50
3 | CN1CCC(n2cnc(-c3ccc(F)cc3)c2-c2ccnc(NCCCN3CCOCC3)n2)CC1 |  | < 50
4 | CCOCCCNc1nccc(-c2c(-c3ccc(F)cc3)ncn2C2CCNCC2)n1 |  | < 50
5 | COc1cccc(Nc2nccc(-c3c(-c4ccc(F)cc4)ncn3C3CCNCC3)n2)c1 | > 4.30 | 
6 | Fc1ccc(-c2ncn(C3CCNCC3)c2-c2ccnc(Nc3ccccc3)c2)cc1 |  | < 50
7 | CN1CCC(n2cnc(-c3ccc(F)cc3)c2-c2ccnc(NCCc3c[nH]c4ccc(Cl)cc34)n2)CC1 |  | < 50
8 | CSc1ccc(-c2ncn(C3CCNCC3)c2-c2ccnc(Nc3ccccc3)n2)cc1 | > 4.30 | 
9 | COc1ccccc1Nc1nccc(-c2c(-c3ccc(F)cc3)ncn2C2CCNCC2)n1 | > 4.30 | 
10 | CCOC(=O)N1CCC(n2cnc(-c3ccc(F)cc3)c2-c2ccnc(Nc3ccc(OCc4ccccc4)cc3)n2)CC1 | > 4.30 | 
11 | CC1(C)CC(n2cnc(-c3ccc(F)cc3)c2-c2ccnc(NCCO)n2)CC(C)(C)N1 |  | < 50
12 | Fc1ccc(-c2ncn(C3CCNCC3)c2-c2ccnc(Nc3cccc(C(F)(F)F)c3)n2)cc1 | > 4.30 | 
13 | CN1CCC(n2cnc(-c3ccc(F)cc3)c2-c2ccnc(NCc3ccccc3)n2)CC1 |  | < 50
14 | CN1CCC(n2cnc(-c3ccc(F)cc3)c2-c2ccnc(NCc3cccc(Cl)c3)n2)CC1 |  | < 50
15 | O=C1CCC(n2cnc(-c3ccc(F)cc3)c2-c2ccnc(Nc3ccccc3)n2)CC1 |  | < 50
16 | Fc1ccc(Nc2nccc(-c3c(-c4ccc(F)cc4)ncn3C3CCNCC3)n2)cc1 | > 4.30 | 
17 | C[S+]([O-])c1ccc(-c2ncn(C3CCNCC3)c2-c2ccnc(Nc3ccccc3)n2)cc1 (configuration not stated) | > 4.30 | 
18 | CN1CCC(n2cnc(-c3ccc(F)cc3)c2-c2ccnc(NCCO)n2)CC1 |  | < 50
19 | NCCNc1nccc(-c2c(-c3ccc(F)cc3)ncn2C2CCNCC2)n1 |  | < 50

Row | Structure (SMILES) | pIC50 [1] | inhibition [2] [µM]
20 | Fc1ccc(-c2ncn(C3CCNCC3)c2-c2ccnc(Nc3cccc(Br)c3)n2)cc1 |  | < 50
21 | CN1CCC(n2cnc(-c3ccc(F)cc3)c2-c2ccnc(NC3CC(C)(C)NC(C)(C)C3)n2)CC1 |  | < 50
22 | CN1CCC(n2cnc(-c3ccc(F)cc3)c2-c2ccnc(NCc3cccc4ccccc34)n2)CC1 |  | < 50
23 | O[C@H]1CC[C@H](n2cnc(-c3ccc(F)cc3)c2-c2ccnc(Nc3ccccc3)n2)CC1 |  | < 50
24 | CC1(C)CC(n2cnc(-c3ccc(F)cc3)c2-c2ccnc(Nc3ccccc3)n2)CC(C)(C)N1 |  | < 50
25 | CN1CCC(n2cnc(-c3ccc(F)cc3)c2-c2ccnc(NC3CCSCC3)n2)CC1 |  | < 50
26 | Fc1ccc(-c2ncn(C3CCNCC3)c2-c2ccnc(Nc3ccc(F)c(F)c3)n2)cc1 | > 4.30 | 
27 | CCOC(=O)N1CCC(n2cnc(-c3ccc(F)cc3)c2-c2ccnc(Nc3cccc(OCc4ccccc4)c3)n2)CC1 | > 4.30 | 
28 | Fc1ccc(-c2ncn(C3CCNCC3)c2-c2ccnc(Nc3ccccc3F)n2)cc1 | > 4.30 | 
29 | Oc1ccc(Nc2nccc(-c3c(-c4ccc(F)cc4)ncn3C3CCNCC3)n2)cc1 | > 4.30 | 
30 | CN1CCC(n2cnc(-c3ccc(F)cc3)c2-c2ccnc(NC3CCNCC3)n2)CC1 |  | < 50
31 | Fc1ccc(-c2ncn(C3CCNCC3)c2-c2ccnc(Nc3cccc(F)c3)n2)cc1 | > 4.30 | 
32 | Fc1ccc(-c2ncn(C3CCNCC3)c2-c2ccnc(NCCCn3ccnc3)n2)cc1 |  | < 50
33 | CN1CCC(n2cnc(-c3ccc(F)cc3)c2-c2ccnc(NCc3cccc4c3OCO4)n2)CC1 |  | < 50
34 | CCOC(=O)N1CCC(Nc2nccc(-c3c(-c4ccc(F)cc4)ncn3C3CCN(C)CC3)n2)CC1 |  | < 50
35 | CN1CCC(n2cnc(-c3ccc(F)cc3)c2-c2ccnc(NC3CCN(Cc4ccccc4)CC3)n2)CC1 |  | < 50
36 | Oc1cccc(Nc2nccc(-c3c(-c4ccc(F)cc4)ncn3C3CCNCC3)n2)c1 | > 4.30 | 
37 | Fc1ccc(-c2ncn(C3CCNCC3)c2-c2ccnc(Nc3ccccc3)n2)cc1 |  | < 50

Reference: the Kinase Knowledgebase extract (Sharma et al. 2016)
